Source: PMC6522510 (Nature Communications, 2019)

Assays:
Test in all cases: cells
Design in all cases: species or system AML cell lines (8); Secondary HTS, 10-point dose-response in triplicate, Cell Titer Glo viability, four-parameter fit EC50
MV4-11 = conditions: Homo sapiens, MV4-11, 72 h, read-out: MV4-11
CMK = conditions: Homo sapiens, CMK, 72 h, read-out: CMK
ML-2 = conditions: Homo sapiens, ML-2, 72 h, read-out: ML-2
CMS = conditions: 72 h, read-out: CMS
MOLM-13 = conditions: Homo sapiens, MOLM-13, 72 h, read-out: MOLM-13
M07e = conditions: M-07e, 72 h, read-out: M07e
CHRF288-11 = conditions: 72 h, read-out: CHRF288-11
U937 = conditions: Homo sapiens, U-937, 72 h, read-out: U937

| SMILES | EC50 (MV4-11) [µM] | EC50 (CMK) [µM] | EC50 (ML-2) [µM] | EC50 (CMS) [µM] | EC50 (MOLM-13) [µM] | EC50 (M07e) [µM] | EC50 (CHRF288-11) [µM] | EC50 (U937) [µM] |
| --- | --- | --- | --- | --- | --- | --- | --- | --- |
| NC(=O)c1ccc(-c2nc(-c3ccc4c(c3)OCO4)c(-c3ccccn3)[nH]2)cc1 [SB-431542] | > 10 | > 10 | > 10 | > 10 | > 10 | > 10 | > 10 | > 10 |
| Nc1ncnc2c1ncn2[C@@H]1O[C@H](C[C@@H](N)CC[C@H](N)C(=O)O)[C@@H](O)[C@H]1O [SINEFUNGIN] | > 10 | > 10 | > 10 | > 10 | > 10 | > 10 | > 10 | > 10 |
| O=C1NC(=O)/C(=C/c2cccc(C(F)(F)F)c2)S1 [SJ000006739, SMI-4A] | > 10 | > 10 | > 10 | > 10 | > 10 | > 10 | > 10 | > 10 |
| CCOC(=O)c1cc2ccccc2nc1C [SJ000025189, MC-1626] | > 10 | > 10 | > 10 | > 10 | > 10 | > 10 | > 10 | > 10 |
| Cc1ccc(S(=O)(=O)n2c(N)nc3ccccc32)cc1 [SJ000042554, NODINITIB-1] | > 10 | > 10 | > 10 | > 10 | > 10 | > 10 | > 10 | > 10 |
| O=C(c1ccc(Cl)cc1Cl)n1nnc2ccccc21 [SJ000142379, ITSA1] | > 10 | > 10 | 6.2 | > 10 | 5.3 | > 10 | 6.1 | > 10 |
| Nc1ncn([C@@H]2O[C@H](CO)[C@@H](O)[C@H]2O)c(=O)n1 [SJ000285227, 5-AZACYTIDINE] | > 10 | 8 | > 10 | 6.83 | 4.5 | > 10 | > 10 | > 10 |
| CC(C)(C)c1ccc(S(=O)(=O)/C=C/C#N)cc1 [SJ000287676, BAY 11-7085] | 1.4 | 3.9 | 1 | 3.1 | 1.5 | 3.2 | 1.4 | 0.93 |
| O=C1Nc2ccc(I)cc2/C1=C/c1cc(Br)c(O)c(Br)c1 [SJ000287883, GW 5074] | > 10 | > 10 | > 10 | > 10 | > 10 | > 10 | > 10 | > 10 |
| O=c1[nH]c2ccccc2c2ccccc12 [SJ000288131, 6(5H)-PHENANTHRIDINONE] | > 10 | > 10 | 2.7 | > 10 | 2 | > 10 | 2.3 | > 10 |
| COc1cccc(-c2cc(=O)c3ccccc3o2)c1N [SJ000288145, PD 98059] | > 10 | > 10 | > 10 | > 10 | > 10 | > 10 | > 10 | > 10 |
| N#CC(=C(/N)Sc1ccccc1N)/C(C#N)=C(\N)Sc1ccccc1N [SJ000288250, U0126] | > 10 | > 10 | > 10 | > 10 | > 10 | > 10 | > 10 | > 10 |
| CCc1c2c(nc3ccc(O)cc13)-c1cc3c(c(=O)n1C2)COC(=O)[C@]3(O)CC [SJ000311679, SN-38] | 0.24 | 0.0232 | 0.00251 | > 10 | 0.0056 | 0.0445 | 0.00949 | 0.0372 |
| COCCCn1c(N)c(C(=O)NC2CCCC2)c2nc3ccccc3nc21 [SJ000479457, CAY10591] | > 10 | > 10 | > 10 | > 10 | > 10 | > 10 | > 10 | > 10 |
| COc1cc2ncnc(-n3nc(-c4ccccn4)nc3N)c2cc1OC [SJ000510891, CP-466722] | > 10 | > 10 | > 10 | > 10 | > 10 | 0.63 | > 10 | > 10 |
| CO[C@H]1/C=C\C=C(/C)C(=O)NC2=CC(=O)C(NCCN(C)C)=C(C[C@@H](C)C[C@H](OC)[C@H](O)[C@@H](C)/C=C(\C)[C@@H]1OC(N)=O)C2=O [SJ000534765, 17-DMAG] | 0.044 | 0.75 | 0.046 | 0.092 | 0.039 | 2 | 0.52 | 0.025 |
| CC(/C=C/C(=O)NO)=C\[C@@H](C)C(=O)c1ccc(N(C)C)cc1 [SJ000534770, TRICHOSTATIN A] | 0.042 | 0.047 | 0.114 | 0.0442 | 0.0771 | 0.09 | 0.0434 | 0.0364 |
| C/C(=C\C(=O)Nc1ccccc1C(=O)O)c1ccc2ccccc2c1 [SJ000565230, BIBR-1532] | > 10 | > 10 | > 10 | > 10 | 7.7 | > 10 | 5 | > 10 |
| COc1cc(N2CCC(N3CCN(C)CC3)CC2)ccc1Nc1ncc(Cl)c(Nc2ccccc2S(=O)(=O)C(C)C)n1 [SJ000565231, NVP-TAE684] | 0.25 | 0.46 | 0.36 | > 10 | 0.29 | 3.8 | 3.6 | > 10 |
| Cc1ccccc1-n1c(Cn2cnc3c(N)ncnc32)nc2cccc(C)c2c1=O [SJ000571308, IC-87114] | > 10 | > 10 | > 10 | > 10 | > 10 | > 10 | > 10 | > 10 |
| Oc1cccc(-c2nc(N3CCOCC3)c3oc4ncccc4c3n2)c1 [SJ000574285, PIK 103] | 1.5 | 3.2 | > 10 | > 10 | 0.94 | > 10 | > 10 | 0.41 |
| CCNC(=O)C[C@@H]1N=C(c2ccc(Cl)cc2)c2cc(OC)ccc2-n2c(C)nnc21 [SJ000574791, I-BET-762] | 0.97 | > 10 | 9.8 | 9.8 | 4.6 | 0.001 | > 10 | 4.3 |
| COc1cc(Nc2ncc(F)c(Nc3ccc4c(n3)NC(=O)C(C)(C)O4)n2)cc(OC)c1OC [SJ000772392, R406] | 0.057 | > 10 | > 10 | 0.9 | 0.14 | > 10 | > 10 | > 10 |
| COc1cc(O)c2c(c1)/C=C/C[C@H](O)[C@H](O)C(=O)/C=C\C[C@H](C)OC2=O [SJ000773172, (5Z)-7-OXOZEAENOL] | > 10 | 0.37 | 5.5 | 7.3 | > 10 | 0.84 | 2.1 | 6.6 |
| Nc1[nH]nc2nnc(-c3c(-c4ccccc4)nn4ccccc34)cc12 [SJ000773182, FR 180204] | > 10 | > 10 | > 10 | > 10 | > 10 | > 10 | > 10 | > 10 |
| O=C(Nc1ccccc1-c1cn2c(CN3CCNCC3)csc2n1)c1cnc2ccccc2n1 [SJ000784238, SRT1720] | > 10 | > 10 | > 10 | > 10 | > 10 | 4.4 | 5.6 | 1.5 |
| Cc1ccc(NC(=O)CCCCCC(=O)Nc2ccccc2N)cc1 [SJ000784239, PIMELIC DIPHENYLAMIDE 106] | > 10 | > 10 | > 10 | 8.2 | > 10 | 6.7 | > 10 | > 10 |
| Cc1cc(Cl)ccc1OCCCC(=O)NO [SJ000784245, DROXINOSTAT] | > 10 | > 10 | > 10 | 6.81 | > 10 | > 10 | 0.37 | > 10 |
